Source: PubChem BioAssay (NCI)
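Compound exposure: 48 hours, 5 concentrations, 96-well plates. TGI: total growth inhibition.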

Tests used:
Assay in all cases: NCI tumour cell line growth inhibition, 48 h
CCRF-CEM leukemia = tested on: CCRF-CEM leukemia
EKVX NSCLC = tested on: EKVX NSCLC
HOP-92 NSCLC = tested on: HOP-92 NSCLC
IGROV1 ovarian = tested on: IGROV1 ovarian
K-562 leukemia = tested on: K-562 leukemia
MDA-MB-231 breast = tested on: MDA-MB-231 breast
SF-268 CNS = tested on: SF-268 CNS
SNB-75 CNS = tested on: SNB-75 CNS
UACC-62 melanoma = tested on: UACC-62 melanoma
ACHN renal = tested on: ACHN renal
HL-60(TB) leukemia = tested on: HL-60(TB) leukemia

SMILES	TGI (CCRF-CEM leukemia) [µM]	TGI (EKVX NSCLC) [µM]	TGI (HOP-92 NSCLC) [µM]	TGI (IGROV1 ovarian) [µM]	TGI (K-562 leukemia) [µM]	TGI (MDA-MB-231 breast) [µM]	TGI (SF-268 CNS) [µM]	TGI (SNB-75 CNS) [µM]	TGI (UACC-62 melanoma) [µM]	TGI (ACHN renal) [µM]	TGI (HL-60(TB) leukemia) [µM]
CCOC(=O)c1nc2cc(C(F)(F)F)ccc2nc1Nc1ccc(F)cc1	66.2	> 100	49.6	> 100	39.9	> 100	> 100	> 100	> 100	–	–
C[C@H](CN1CC(=O)NC(=O)C1)N1CC(=O)NC(=O)C1	> 100	> 100	> 100	> 100	> 100	–	> 100	> 100	> 100	–	–
O=C(Cc1ccccc1)N=Nc1c(O)[nH]c2ccccc12	> 100	> 100	–	> 100	> 100	> 100	70.7	> 100	> 100	> 100	–
Cc1nc2c(Cl)cc(Cl)cc2c(Cl)c1CCCl	> 100	> 100	–	> 100	> 100	> 100	> 100	> 100	> 100	> 100	> 100
Cc1cc(C)c2c(=N)c3ccccc3n(CCCCCCn3c4ccccc4c(=N)c4c(C)cc(C)nc43)c2n1	0.565	3.29	2.94	2.64	> 100	1.09	–	1.43	3.26	2.91	–
CC(C)N1CCC2(CC1)NNc1ncccc1-n1cccc12	> 100	> 100	–	–	> 100	–	> 100	> 100	–	> 100	> 100
COc1cc(/C=C2\N=C(C)N(n3c(-c4ccccc4)nc4ccccc4c3=O)C2=O)cc(OC)c1OC	> 100	> 100	–	> 100	> 100	> 100	> 100	> 100	> 100	> 100	> 100
CCCC(=O)Nc1cc(/C=C/C(=O)N2CC(CCl)c3c2cc([N+](=O)[O-])c2ccccc32)n(C)c1 (stereo not drawn)	> 100	–	> 100	> 100	> 100	> 100	> 100	97.7	> 100	> 100	27.2
CN1CCN(/C(N)=C(\C#N)C(=O)Nc2ccccc2)CC1	> 100	> 100	> 100	> 100	> 100	–	–	> 100	> 100	> 100	–
NC(=O)c1ncn2c(=O)n(CCl)nnc12	> 100	> 100	> 100	> 100	> 100	> 100	> 100	> 100	> 100	> 100	–
N#CCSc1c(-c2ccccc2)c(=O)n(-c2ccccc2)c(=S)n1-c1ccccc1	> 100	> 100	> 100	> 100	> 100	–	> 100	> 100	> 100	> 100	> 100
COc1c(-c2cccs2)oc2c(CC(=O)O)cccc2c1=O	> 100	> 100	–	> 100	> 100	> 100	–	–	> 100	–	> 100
CC(=O)Nc1ccc(-c2nnc(SCC(=O)Nc3cccc([N+](=O)[O-])c3)o2)cc1	> 100	–	35.3	31.4	57.5	–	31.7	32.9	23.7	43.7	58.2
CC(C)=CCCC1(Sc2ccccc2)C(=O)OCC1C=C(C)C (stereo not drawn)	> 100	79.7	–	60.4	–	> 100	> 100	> 100	–	> 100	–
CC(C)(C)c1cc(/C=C/C(=O)CC(=O)/C=C/c2cc(C(C)(C)C)c(O)c(C(C)(C)C)c2)cc(C(C)(C)C)c1O	> 50	> 50	–	> 50	–	> 50	> 50	> 50	> 50	> 50	> 50
Nc1nn(CC(O)CO)c(=O)s1 (stereo not drawn)	> 100	> 100	–	> 100	> 100	–	> 100	> 100	> 100	> 100	> 100
Clc1ccc2nc(CC3CCCC3)[nH]c2c1	> 100	43.5	34	19	22.1	43.6	40.2	56	33.4	32.6	–
COc1cc2c(cc1OC(=O)c1cc3ccccc3[nH]1)N=C[C@@H]1CCCN1C2=O	1.95	3.2	> 100	> 39.6	2.83	2.88	> 22.2	7.02	0.707	13	–
COc1ccc(/C=N\NC(=O)Nc2cccc3ccccc23)cc1	> 100	95.2	42.1	> 100	–	44.4	> 100	34.5	–	66.6	–
COc1nc2ccc(CNc3ccc(C(=O)O)cc3)cc2nc1OC	> 10	> 10	–	> 10	> 10	> 10	> 10	> 10	> 10	> 10	> 10
O=C1C2=C(CCCCC2)C2CCCCC12O (stereo not drawn)	> 100	> 100	> 100	> 100	> 100	–	> 100	> 100	> 100	> 100	> 100
COc1cc2cc3c4c(cc(OC)c(OC)c4c2cc1OC)CCN3C(=O)N(C)C	> 100	> 100	> 100	> 100	> 100	–	> 100	> 100	> 100	> 100	> 100
COc1ccc(/C(Cl)=C(\C=O)c2ccccc2)cc1OC	> 100	> 100	–	> 100	> 100	–	> 100	52.2	> 100	> 100	76.9
